# Experimental data: PMC8956739, “A synthetic lipopeptide targeting top-priority multidrug-resistant Gram-negative pathogens” (Nature Communications, 2022)
# “And” between values parts separate entries of the source, which are not always exact repeats. Equal entries are not always repeated.
# Assays:
# [1] = test system: K. pneumoniae FADDI-KP065; type: cell-based, Klebsiella pneumoniae; conditions: carbapenem-resistant isolate
# Method in brief: (§1)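 Each strain is tested in cation-adjusted Mueller–Hinton broth using the micro-dilution technique, and growth inhibition gives the MIC.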
# [2] = test system: K. pneumoniae FADDI-KP032; type: cell-based, Klebsiella pneumoniae; conditions: carbapenem-resistant isolate
# Method in brief: as §1
# [3] = test system: A. baumannii AB5075; assay: Transcriptomic analysis (RNA-Seq) of bacteria; type: cell-based, Acinetobacter baumannii; conditions: for logFC (Differential gene expression for all genes), Geneid ABUW_RS00005 / logFC (Differential gene expression for all genes), Geneid ABUW_RS00020 / logFC (Fold change), gene ABUW_RS00010 / logFC (Fold change), gene ABUW_RS00030 / logFC (Fold change), gene ABUW_RS00035 / logFC (Fold change), gene recF (ABUW_RS00015) / 4h_1h logFC (Differential gene expression for all genes), Geneid ABUW_RS00005 / 4h_1h logFC (Differential gene expression for all genes), Geneid ABUW_RS00010 / 4h_1h logFC (Differential gene expression for all genes), Geneid ABUW_RS00015 / 4h_1h logFC (Differential gene expression for all genes), Geneid ABUW_RS00020: RNA-Seq A. baumannii AB5075; for log2FC, gene ABUW_RS01945 (acyl-CoA thioesterase II) / log2FC, gene ABUW_RS02545 (acyl-CoA thioesterase) / log2FC, gene ABUW_RS05045 (acyl-CoA thioesterase) / log2FC, gene ABUW_RS17575 (acyl-CoA thioesterase): pathway Fatty Acid and Lipid Degradation; for 4h_1h logFC (Differential gene expression for all genes), Geneid ABUW_RS00005 / 4h_1h logFC (Differential gene expression for all genes), Geneid ABUW_RS00010 / 4h_1h logFC (Differential gene expression for all genes), Geneid ABUW_RS00015 / 4h_1h logFC (Differential gene expression for all genes), Geneid ABUW_RS00020: 4h vs 1h
# Experimental: Mid-log phase A. baumannii AB5075 (~10^8 CFU/mL) in CaMHB was treated with colistin (2 and 8 μg/mL), F287, F319 or F365 (equimolar concentration to colistin) for 1 and 4 h. Total RNA was extracted using TRIzol Reagent (Invitrogen, USA) and RNeasy Mini Kit (Qiagen, Germany). Quality check of RNA samples was conducted with NanoDrop (Thermo Fisher Scientific, USA) and Agilent 2100 Bioanalyzer (Agilent Technologies, USA) for sequencing (150 bp paired-end) at Genewiz (Shanghai, China). Raw reads were aligned to A. baumannii AB5075 genome (GCF_000963815, https://www.ncbi.nlm.nih.gov/assembly/GCF_000963815.1/) using subread-aligner (subread 2.0.1) and summarized by featureCounts (subread 2.0.1). Principal component analysis (PCA) was conducted with mixOmics 6.14.1 in R. Differentially expressed genes were determined using limma 3.46.0 with a combination of fold change ≥ 2 and false discovery rate (FDR, by Benjamini–Hochberg algorithm) adjusted P-value ≤ 0.05 (n = 3). Enrichment analysis of gene differential expression in AB5075 was conducted using BioCyc (A. baumannii AB5075, version 25.5). UpSetR 1.4.0, ComplexHeatmap 2.6.2 and circlize 0.4.13 were used for data visualization. Raw data were deposited in Short Reads Archive (SRA) database under accession numbers SRR15235669-SRR15235725.
# [4] = test system: P. aeruginosa ATCC 27853; assay: Neutropenic mouse bloodstream infection model; type: in vivo; conditions: single IV dose 4 mg/kg; for Δlog10 CFU/mL blood (mean): treated minus control, mean of replicates
# Method in brief: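 Female Swiss mice made neutropenic with cyclophosphamide (150 mg/kg day −4, 100 mg/kg day −1), infected IV with 50 µL of 4 × 10^8 CFU/mL. Lipopeptide 4 mg/kg (free base) IV at 2 h post-inoculation, n = 3. Efficacy = Δlog10 CFU/mL blood versus saline at 4 h post-dose.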
substance,measurement,setting,value
Colistin [reference compound],MIC K. pneumoniae FADDI-KP065,[1],0.25 µg/mL
same,MIC K. pneumoniae FADDI-KP032,[2],1 µg/mL
same,"logFC (Differential gene expression for all genes), Geneid ABUW_RS00005","[3]; H vs Cont, 1h",-0.1415
same,"logFC (Differential gene expression for all genes), Geneid ABUW_RS00020","[3]; H vs Cont, 1h",0.3148
same,"logFC (Fold change), gene ABUW_RS00010","[3]; H vs Cont, 1h",0.4448
same,"logFC (Fold change), gene ABUW_RS00030","[3]; H vs Cont, 1h",-0.4924
same,"logFC (Fold change), gene ABUW_RS00035","[3]; H vs Cont, 1h",1.135
same,"logFC (Fold change), gene recF (ABUW_RS00015)","[3]; H vs Cont, 1h",-0.2294
same,"log2FC, gene ABUW_RS01945 (acyl-CoA thioesterase II)","[3]; H vs Cont, 1h",0.3504
same,"log2FC, gene ABUW_RS02545 (acyl-CoA thioesterase)","[3]; H vs Cont, 1h",1.4185
same,"log2FC, gene ABUW_RS05045 (acyl-CoA thioesterase)","[3]; H vs Cont, 1h",0.5564
same,"log2FC, gene ABUW_RS17575 (acyl-CoA thioesterase)","[3]; H vs Cont, 1h",-1.353
same,"logFC (Differential gene expression for all genes), Geneid ABUW_RS00005","[3]; H vs Cont, 4h",-0.09217
same,"logFC (Differential gene expression for all genes), Geneid ABUW_RS00020","[3]; H vs Cont, 4h",-0.1513
same,"logFC (Fold change), gene ABUW_RS00010","[3]; H vs Cont, 4h",1.069
same,"logFC (Fold change), gene ABUW_RS00030","[3]; H vs Cont, 4h",-0.5349
same,"logFC (Fold change), gene ABUW_RS00035","[3]; H vs Cont, 4h",1.256
same,"logFC (Fold change), gene recF (ABUW_RS00015)","[3]; H vs Cont, 4h",-1.096
same,"log2FC, gene ABUW_RS01945 (acyl-CoA thioesterase II)","[3]; H vs Cont, 4h",-0.7138
same,"log2FC, gene ABUW_RS02545 (acyl-CoA thioesterase)","[3]; H vs Cont, 4h",0.6589
same,"log2FC, gene ABUW_RS05045 (acyl-CoA thioesterase)","[3]; H vs Cont, 4h",0.2411
same,"log2FC, gene ABUW_RS17575 (acyl-CoA thioesterase)","[3]; H vs Cont, 4h",-2.464
same,"4h_1h logFC (Differential gene expression for all genes), Geneid ABUW_RS00005",[3]; H,-0.3521
same,"4h_1h logFC (Differential gene expression for all genes), Geneid ABUW_RS00010",[3]; H,0.7488
same,"4h_1h logFC (Differential gene expression for all genes), Geneid ABUW_RS00015",[3]; H,-1.211
same,"4h_1h logFC (Differential gene expression for all genes), Geneid ABUW_RS00020",[3]; H,0.2283
same,"logFC (Differential gene expression for all genes), Geneid ABUW_RS00005","[3]; L vs Cont, 1h",-0.03172
same,"logFC (Differential gene expression for all genes), Geneid ABUW_RS00020","[3]; L vs Cont, 1h",0.1157
same,"logFC (Fold change), gene ABUW_RS00010","[3]; L vs Cont, 1h",-0.05024
same,"logFC (Fold change), gene ABUW_RS00030","[3]; L vs Cont, 1h",-0.1351
same,"logFC (Fold change), gene ABUW_RS00035","[3]; L vs Cont, 1h",-0.09136
same,"logFC (Fold change), gene recF (ABUW_RS00015)","[3]; L vs Cont, 1h",-0.09027
same,"log2FC, gene ABUW_RS01945 (acyl-CoA thioesterase II)","[3]; L vs Cont, 1h",0.4895
same,"log2FC, gene ABUW_RS02545 (acyl-CoA thioesterase)","[3]; L vs Cont, 1h",0.2839
same,"log2FC, gene ABUW_RS05045 (acyl-CoA thioesterase)","[3]; L vs Cont, 1h",-0.5862
same,"log2FC, gene ABUW_RS17575 (acyl-CoA thioesterase)","[3]; L vs Cont, 1h",0.3237
same,"logFC (Differential gene expression for all genes), Geneid ABUW_RS00005","[3]; L vs Cont, 4h",-0.01117
same,"logFC (Differential gene expression for all genes), Geneid ABUW_RS00020","[3]; L vs Cont, 4h",-0.1061
same,"logFC (Fold change), gene ABUW_RS00010","[3]; L vs Cont, 4h",0.1057
same,"logFC (Fold change), gene ABUW_RS00030","[3]; L vs Cont, 4h",-0.4634
same,"logFC (Fold change), gene ABUW_RS00035","[3]; L vs Cont, 4h",0.03384
same,"logFC (Fold change), gene recF (ABUW_RS00015)","[3]; L vs Cont, 4h",-0.08717
same,"log2FC, gene ABUW_RS01945 (acyl-CoA thioesterase II)","[3]; L vs Cont, 4h",0.543
same,"log2FC, gene ABUW_RS02545 (acyl-CoA thioesterase)","[3]; L vs Cont, 4h",-0.1794
same,"log2FC, gene ABUW_RS05045 (acyl-CoA thioesterase)","[3]; L vs Cont, 4h",0.3247
same,"log2FC, gene ABUW_RS17575 (acyl-CoA thioesterase)","[3]; L vs Cont, 4h",-0.8383
same,"4h_1h logFC (Differential gene expression for all genes), Geneid ABUW_RS00005",[3]; L,-0.3028
same,"4h_1h logFC (Differential gene expression for all genes), Geneid ABUW_RS00010",[3]; L,-0.2642
same,"4h_1h logFC (Differential gene expression for all genes), Geneid ABUW_RS00015",[3]; L,-0.2929
same,"4h_1h logFC (Differential gene expression for all genes), Geneid ABUW_RS00020",[3]; L,0.3892
same,"Log10 CFU/mL blood at 4 h, Mean",[4]; 4 h,5.05 Log10 CFU/mL blood
same,Δlog10 CFU/mL blood (mean),"[4]; 4 h, 4 mg/kg",-2.39 log10 CFU/mL blood
same,Δlog10 CFU/mL blood (mean),"[4]; 4 h, listed as COL, 4 mg/kg",−2.39 log10 CFU/mL blood
same,"Log10 CFU/mL blood at 4 h, single mouse","[4]; 4 h, 4 mg/kg",5.25 Log10 CFU/mL blood and 4.89 Log10 CFU/mL blood and 5.02 Log10 CFU/mL blood
same,"Delta Log10 CFU/mL blood at 4 h, single mouse","[4]; treated mouse minus mean of vehicle mice, 4 mg/kg",-2.19 Log10 CFU/mL blood and -2.56 Log10 CFU/mL blood and -2.42 Log10 CFU/mL blood
